From US20060240048A1 (priority 2002, published 2006)

Biological target: T1, human cannabinoid CB2 receptor (Homo sapiens, UniProt P34972)
T1 construct: expressed in transfected cells; host or cells: Saccharomyces cerevisiae strain MMY23
Experiment: Cannabinoid CB2 receptor agonist activity, yeast reporter assay (FDGlu fluorescence);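 for Emax: 100% equals maximal response of reference agonist HU210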
Type: cell-based
Conditions: for Emax: read-out: efficacy value (Emax) at the cloned human cannabinoid CB2 receptor

T1 sequence (P34972 whole entry): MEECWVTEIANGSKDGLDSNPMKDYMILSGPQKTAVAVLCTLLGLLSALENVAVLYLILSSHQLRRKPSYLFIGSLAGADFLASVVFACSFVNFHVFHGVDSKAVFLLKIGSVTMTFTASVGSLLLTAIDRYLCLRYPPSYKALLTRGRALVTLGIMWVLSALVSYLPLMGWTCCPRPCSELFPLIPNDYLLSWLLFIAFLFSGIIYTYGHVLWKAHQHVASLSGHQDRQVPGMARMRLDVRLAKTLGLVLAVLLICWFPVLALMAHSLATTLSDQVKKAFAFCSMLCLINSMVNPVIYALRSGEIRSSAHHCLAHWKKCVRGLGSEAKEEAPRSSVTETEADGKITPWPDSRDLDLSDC

**Q.** For `CC(C)c1cc(Nc2ccc(Cl)cc2Cl)ncc1C(=O)NCC1CCS(=O)(=O)C1` (stereo not drawn) [Example 278, 6-(2,4-Dichloro-phenylamino)-N-(1,1-dioxo-tetrahydro-1/^6-thiophen-3-ylmethyl)-4-isopropyl-nicotinamide], which EC50 is on record?
**A.** The EC50 was < 300 nM.

**Q.** And the Emax?
**A.** The Emax was > 50%.

**Q.** For `O=C(NCC1CCOCC1)c1cnc(Nc2cccc(Br)c2)cc1C(F)(F)F` [Example 118, N-(Tetrahydropyran-4-yl-methyl)-6-(3-bromophenyl-amino)-4-trifluoromethyl-nicotinamide], which EC50 is on record?
**A.** The EC50 was < 300 nM.

**Q.** What about the Emax of the same molecule?
**A.** Its Emax is > 50%.

**Q.** With `O=C(NCC1CCCC1)c1cnc(Nc2ccc(Cl)cc2F)cc1C(F)(F)F` [Example 161, N-Cyclopentylmethyl-6-(2-fluoro-4-chloro-phenyl-amino)-4-trifluoromethyl-nicotinamide] as the molecule, how does the EC50 read?
**A.** Its EC50 is < 300 nM.

**Q.** And the Emax?
**A.** The Emax was > 50%.

**Q.** Which EC50 does the source give for `O=C(NCC1CCC1)c1cnc(Nc2ccc(Cl)cc2F)cc1C(F)(F)F` [Example 160, N-Cyclobutylmethyl-6-(2-fluoro-4-chloro-phenyl-amino)-4-trifluoromethyl-nicotinamide] here?
**A.** The EC50 was < 300 nM.

**Q.** What about the Emax of the same molecule?
**A.** The Emax was > 50%.

**Q.** What does the source list for `O=C(NCC1CCCC1)c1cnc(Nc2ccc(F)cc2Cl)cc1C(F)(F)F` [Example 164, N-Cyclopentylmethyl-6-(2-Chloro-4-fluoro-phenyl-amino)-4-trifluoromethyl-nicotinamide]?
**A.** EC50: < 300 nM; Emax: > 50%

**Q.** `CC(C)c1cc(Nc2ccc(Br)c(C(F)(F)F)c2)ncc1C(=O)NCC1CCOCC1` [Example 294, 6-(4-Bromo-3-trifluoromethyl-phenylamino)-4-isopropyl-N-(tetrahydropyran-4-ylmethyl)-nicotinamide] was tested. Which Emax did it give?
**A.** Its Emax is > 50%.

**Q.** Which results are given for `CC(C)c1cc(Nc2ccc(Br)cc2Cl)ncc1C(=O)NCC1CCCC1` [Example 248, 6-(4-bromo-2-chlorophenylamino)-N-cyclopentylmethyl-4-isopropyl-nicotinamide]?
**A.** EC50: < 300 nM; Emax: > 50%

**Q.** `CC(C)c1cc(Nc2cc(C(F)(F)F)ccc2F)ncc1C(=O)NCC1CCOCC1` [Example 236, 6-(2-Fluoro-5-trifluoromethyl-phenylamino)-4-isopropyl-N-(tetrahydro-pyran-4-ylmethyl)-nicotinamide] was tested. Which EC50 did it give?
**A.** The EC50 was < 300 nM.

**Q.** What about the Emax of the same molecule?
**A.** Its Emax is > 50%.

**Q.** What does the source list for `O=C(NCC1CCOCC1)c1cnc(Nc2ccc(F)cc2Cl)cc1C(F)(F)F` [Example 165, N-(Tetrahydropyran-4-yl-methyl)-6-(2-chloro-4-fluoro-phenylamino)-4-trifluoro-methyl-nicotinamide]?
**A.** EC50: < 300 nM; Emax: > 50%

**Q.** What does the source list for `O=C(NCC1CCCCC1)c1cnc(Nc2cc(Cl)cc(Cl)c2)cc1C(F)(F)F` [Example 146, N-Cyclohexylmethyl-6-(3,5-dichloro-phenytamino)-4-tri-fluoromethyl-nicotinamide]?
**A.** EC50: < 300 nM; Emax: > 50%

**Q.** Which EC50 does the source give for `Cc1cc(C#N)ccc1Nc1cc(C(C)C)c(C(=O)NCC2CCOCC2)cn1` [Example 220, 6-(4-Cyano-2-methyl-phenylamino)-4-isopropyl-N-(tetrahydro-pyran-4-ylmethyl)-nicotinamide] here?
**A.** The EC50 was < 300 nM.

**Q.** What about the Emax of the same molecule?
**A.** Its Emax is > 50%.

**Q.** For `O=C(NCC1CCC1)c1cnc(Nc2cccc(Br)c2)cc1C(F)(F)F` [Example 120, N-Cyclobutylmethyl-6-(3-bromo-phenylamino)-4-tri-fluoromethyl-nicotinamide], which EC50 is on record?
**A.** The EC50 was < 300 nM.

**Q.** What about the Emax of the same molecule?
**A.** The Emax was > 50%.

**Q.** `COc1ccc(Cl)cc1Nc1cc(C(F)(F)F)c(C(=O)NCC2CCC2)cn1` [Example 169, N-Cyclobutylmethyl-6-(2-methoxy-5-chloro-phenyl-amino)-4-trifluoromethyl-nicotinamide] was tested. Which Emax did it give?
**A.** The Emax was > 50%.

**Q.** With `CC(C)CNC(=O)c1cnc(Nc2ccc(Cl)c(Cl)c2)cc1C(F)(F)F` [Example 153, N-Isobutyl-6-(3,4-dichloro-phenylamino)-4-trifluoro-methyl-nicotinamide] as the molecule, how does the EC50 read?
**A.** Its EC50 is < 300 nM.

**Q.** And the Emax?
**A.** Its Emax is > 50%.

**Q.** How did the EC50 turn out when `CC(C)c1cc(Nc2cccc(F)c2)ncc1C(=O)NCC1CCCC1` [Example 22, N-Cyclopentylmethyl-6-(3-fluorophenylamino)-4-isopropyl-nicotinamide] was run?
**A.** Its EC50 is < 300 nM.

**Q.** What about the Emax of the same molecule?
**A.** The Emax was > 50%.

**Q.** How did the EC50 turn out when `CC(C)CNC(=O)c1cnc(Nc2cc(Cl)ccc2F)cc1C(C)C` [Example 276, 6-(5-Chloro-2-fluoro-phenylamino)-N-isobutyl-4-isopropyl-nicotinamide] was run?
**A.** The EC50 was < 300 nM.

**Q.** And the Emax?
**A.** The Emax was > 50%.

**Q.** `CC(C)c1nc(Nc2cccc(F)c2)ccc1C(=O)NCC1CCS(=O)(=O)C1` (stereo not drawn) [Example 219, 6-(3-Fluoro-phenylamino)-N-(1,1-dioxo-tetrahydrothiophen-3-ylmethyl)-2-isopropyl-nicotinamide] was tested. Which EC50 did it give?
**A.** Its EC50 is < 300 nM.

**Q.** And the Emax?
**A.** The Emax was > 50%.

**Q.** `CC(C)c1cc(Nc2ccc(Cl)c(Cl)c2)ncc1C(=O)NCC1CCC1` [Example 251, N-Cyclobutylmethyl-6-(3,4-dichtoro-phenylamino)-4-isopropyl-nicotinamide] was tested. Which EC50 did it give?
**A.** Its EC50 is < 300 nM.

**Q.** What about the Emax of the same molecule?
**A.** The Emax was > 50%.

**Q.** How did the EC50 turn out when `O=C(NCC1CCCCCC1)c1cnc(Nc2cccc(Cl)c2Cl)cc1C(F)(F)F` [Example 137, N-Cycloheptylmethyl-6-(2,3-dichloro-phenylamino)-4-tri-fluoromethyl-nicotinamide] was run?
**A.** The EC50 was < 300 nM.

**Q.** And the Emax?
**A.** Its Emax is > 50%.

**Q.** How did the EC50 turn out when `CC(C)c1cc(Nc2cccc(C(F)(F)F)c2)ncc1C(=O)NCC1CCOCC1` [Example 19, 4-Isopropyl-N-(tetrahydro-pyran-4-ylmethyl)-6-(3-trifluoromethyl-phenylamino) nicotinamide] was run?
**A.** Its EC50 is < 300 nM.

**Q.** And the Emax?
**A.** Its Emax is > 50%.

**Q.** Which results are given for `O=C(NCC1CCOCC1)c1ccc(Nc2cccc(Cl)c2)nc1C(F)(F)F` [Example 204, 6-(3-Chloro-phenylamino)-N-(tetrahydro-pyran-4-ylmethyl)-2-trifluoromethyl-nicotinamide]?
**A.** EC50: < 300 nM; Emax: > 50%

**Q.** For `O=C(NCC1CCCC1)c1cnc(Nc2ccc(F)cc2F)cc1C(F)(F)F` [Example 167, N-Cyclopentylmethyl-6-(2,4-difluoro-phenylamino)-4-tri-fluoromethyl-nicotinamide], which EC50 is on record?
**A.** Its EC50 is < 300 nM.

**Q.** What about the Emax of the same molecule?
**A.** The Emax was > 50%.

**Q.** How did the Emax turn out when `CC(C)c1cc(Nc2ccc(C#N)cc2F)ncc1C(=O)NCC1CCOCC1` [Example 97, 6-(4-Cyano-2-fluoro-phenylamino)-4-isopropyl-N-(tetrahydro-pyran-4-ylmethyl)-nicotinamide] was run?
**A.** The Emax was > 50%.

**Q.** How did the EC50 turn out when `CC(C)c1cc(Nc2cccc(Cl)c2)ncc1C(=O)NCC1CCS(=O)(=O)C1` (stereo not drawn) [Example 223, 6-(3-Chloro-phenylamino)-N-(1,1-dioxo-tetrahydro-1/^6-thiophen-3-ylmethyl)-4-isopropyl-nicotinamide] was run?
**A.** Its EC50 is < 300 nM.

**Q.** What about the Emax of the same molecule?
**A.** Its Emax is > 50%.

**Q.** How did the EC50 turn out when `CC(C)c1cc(Nc2cc(C(F)(F)F)ccc2Cl)ncc1C(=O)NCC1CCOCC1` [Example 237, 6-(2-Chloro-5-trifluoromethyl-phenylamino)-4-isopropyl-N-(tetrahydro-pyran-4-ylmethyl)-nicotinamide] was run?
**A.** The EC50 was < 300 nM.

**Q.** What about the Emax of the same molecule?
**A.** The Emax was > 50%.

**Q.** How did the EC50 turn out when `CC(C)c1cc(Nc2cc(Cl)cc(Cl)c2)ncc1C(=O)NCC1CCOCC1` [Example 75, 6-(3,5-Dichloro-phenylamino)-4-isopropyl-N-(tetrahydro-pyran-4-ylmethyl)-nicotinamide] was run?
**A.** The EC50 was < 300 nM.

**Q.** And the Emax?
**A.** Its Emax is > 50%.

**Q.** What does the source list for `O=C(NCC1CCCCC1)c1cnc(Nc2ccc(Cl)c(Cl)c2)cc1C(F)(F)F` [Example 159, N-Cyclohexylmethyl-6-(3,4-dichloro-phenylamino)-4-tri-fluoromethyl-nicotinamide]?
**A.** EC50: < 300 nM; Emax: > 50%
